Earlier results, collected in patent publication US12577179B2, “Methods and compositions for soil regeneration and improved soil hydrology” (Locus Solutions IPCo, LLC, priority 2021, dated 2026).

Details: surfactant micelles; no method or source given

Row | Molecule | micelle size
1 | CCCCCCCC/C=C\CCCCCCCC(=O)OCCOCC(OCCO)C1OCC(OCCO)C1OCCO (stereo not shown) [Tween-80] | 11.7 nm
2 | CCCCCCCCCCCCOS(=O)(=O)[O-].[Na+] [sodium dodecyl sulfate] | 3.5-6 nm
3 | Nonidet P40 | 15.4 nm
4 | Triton X-100 | 7.5 nm
